target: T1, human TRPV4 (Homo sapiens, UniProt Q9HBA0); assay: FLIPR assay for hTRPV4 expressed in BHK cells: inhibition of Agonist Compound-induced calcium signal; format: cell-based; conditions: hTRPV4 in BHK/AC9 cells, FLIPR calcium signal, agonist at EC80; reported as range class; read-out: IC50
T1 construct: expressed in transfected cells; host or cells: BHK/AC9 cells transduced with BacMam virus
Outline: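 BHK/AC9 cells transduced with BacMam human TRPV4 (MOI 78), plated 15,000 per well and cultured 24 h at 37° C. Loaded with 2 μM Fluo-4 AM plus 500 μM Brilliant Black in HBSS for 1-1.5 h at room temperature in the dark; intracellular calcium signal read by FLIPR fluorescence.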

T1 sequence (Q9HBA0 whole entry): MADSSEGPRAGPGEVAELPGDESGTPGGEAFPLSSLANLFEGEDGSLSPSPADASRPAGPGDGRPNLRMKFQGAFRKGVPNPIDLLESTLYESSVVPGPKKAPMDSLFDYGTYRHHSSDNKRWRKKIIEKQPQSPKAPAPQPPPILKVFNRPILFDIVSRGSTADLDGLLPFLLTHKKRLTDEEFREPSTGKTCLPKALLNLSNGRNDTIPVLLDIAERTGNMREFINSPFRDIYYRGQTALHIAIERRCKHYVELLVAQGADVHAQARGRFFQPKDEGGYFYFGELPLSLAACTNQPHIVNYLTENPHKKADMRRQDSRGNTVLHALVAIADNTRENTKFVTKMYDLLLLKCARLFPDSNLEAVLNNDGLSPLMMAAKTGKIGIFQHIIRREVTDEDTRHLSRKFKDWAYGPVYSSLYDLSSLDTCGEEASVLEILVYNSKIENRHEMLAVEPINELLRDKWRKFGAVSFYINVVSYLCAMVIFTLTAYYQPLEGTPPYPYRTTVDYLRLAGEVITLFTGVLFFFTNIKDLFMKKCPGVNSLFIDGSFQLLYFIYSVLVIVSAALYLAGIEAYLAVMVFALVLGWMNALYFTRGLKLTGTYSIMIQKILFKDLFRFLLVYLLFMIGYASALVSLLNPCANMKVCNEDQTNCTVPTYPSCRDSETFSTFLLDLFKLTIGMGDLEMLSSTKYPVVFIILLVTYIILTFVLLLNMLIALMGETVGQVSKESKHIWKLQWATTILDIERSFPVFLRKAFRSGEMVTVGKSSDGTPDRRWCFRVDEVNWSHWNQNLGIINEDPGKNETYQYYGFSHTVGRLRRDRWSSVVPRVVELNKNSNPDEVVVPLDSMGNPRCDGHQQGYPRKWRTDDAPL

Compound	IC50 [nM]
N#Cc1cc(F)ccc1S(=O)(=O)N1C[C@H](Oc2ccc(C(F)(F)F)cc2)[C@@](O)(CO)C1 [Example 149, 5-fluoro-2-(((3S,4S)-3-hydroxy-3-(hydroxymethyl)-4-(4-(trifluoromethyl)phenoxy)pyrrolidin-1-yl)sulfonyl)benzonitrile]	10 to 100
CC(C)COc1cc(C#N)c(F)cc1O[C@H]1CN(S(=O)(=O)c2ccc(C#N)nc2)C[C@@]1(O)CO [Example 181, 5-(((3R,4S)-4-(4-cyano-5-fluoro-2-isobutoxyphenoxy)-3-hydroxy-3-(hydroxymethyl)pyrrolidin-1-yl)sulfonyl) picolinonitrile]	0.1 to 10
N#Cc1ccc(O[C@H]2CN(S(=O)(=O)c3cccnc3C#N)C[C@@]2(O)CO)cc1F [Example 62, 3-(((3R,4S)-4-(4-cyano-3-fluorophenoxy)-3-hydroxy-3-(hydroxymethyl)pyrrolidin-1-yl)sulfonyl)picolinonitrile]	0.1 to 10
N#Cc1cc(C(F)(F)F)ccc1S(=O)(=O)N1C[C@H](Oc2ccc(F)c(Cl)c2)[C@](O)(CO)C1 [Example 41, 2-(((3R,4S)-4-(3-chloro-4-fluorophenoxy)-3-hydroxy-3-(hydroxymethyl)pyrrolidin-1-yl)sulfonyl)-5-(trifluoromethyl)benzonitrile]	10 to 100
N#Cc1ccc(O[C@H]2CN(S(=O)(=O)c3cnc(C(F)(F)F)nc3)C[C@@]2(O)CO)cc1F [Example 128, 2-fluoro-4-(((3S,4R)-4-hydroxy-4-(hydroxymethyl)-1-((2-(trifluoromethyl)pyrimidin-5-yl)sulfonyl)pyrrolidin-3-yl)oxy)benzonitrile]	100 to 1000
N#Cc1ccc(O[C@H]2CN(S(=O)(=O)c3ccc(F)cc3Br)C[C@]2(O)CO)cc1F [Example 144, 4-(((3S,4S)-1-((2-bromo-4-fluorophenyl)sulfonyl)-4-hydroxy-4-(hydroxymethyl)pyrrolidin-3-yl)oxy)-2-fluorobenzonitrile]	10 to 100
N#Cc1cc(C(F)(F)F)ccc1S(=O)(=O)N1C[C@H](Oc2ccc(F)cc2)[C@](O)(CO)C1 [Example 47, 2-(((3R,4S)-4-(4-fluorophenoxy)-3-hydroxy-3-(hydroxymethyl)pyrrolidin-1-yl)sulfonyl)-5-(trifluoromethyl)benzonitrile]	10 to 100
N#Cc1ccc(O[C@H]2CN(S(=O)(=O)c3cccc(OC(F)F)n3)C[C@@]2(O)CO)cc1F [Example 134, 4-(((3S,4R)-1-((6-(difluoromethoxy)pyridin-2-yl)sulfonyl)-4-hydroxy-4-(hydroxymethyl)pyrrolidin-3-yl)oxy)-2-fluorobenzonitrile]	10 to 100
N#Cc1cc(C(F)(F)F)ccc1S(=O)(=O)N1C[C@H](Oc2ccc(C(F)(F)F)cc2)[C@](O)(CO)C1 [Example 37, 2-(((3R,4S)-3-hydroxy-3-(hydroxymethyl)-4-(4-(trifluoromethyl)phenoxy)pyrrolidin-1-yl)sulfonyl)-5-(trifluoromethyl)benzonitrile]	0.1 to 10
N#Cc1ccc(O[C@H]2CN(S(=O)(=O)c3c(Cl)nc4sccn34)C[C@@]2(O)CO)cc1F [Example 90, 4-(((3S,4R)-1-((6-chloroimidazo[2,1-b]thiazol-5-yl)sulfonyl)-4-hydroxy-4-(hydroxymethyl)pyrrolidin-3-yl)oxy)-2-fluorobenzonitrile]	10 to 100
C[C@@H](O)[C@]1(O)CN(S(=O)(=O)c2ccc(F)cn2)C[C@@H]1Oc1ccc(C#N)c(F)c1 [Example 207, 2-fluoro-4-(((3S,4R)-1-((5-fluoropyridin-2-yl)sulfonyl)-4-hydroxy-4-((R)-1-hydroxyethyl)pyrrolidin-3-yl)oxy)benzonitrile]	10 to 100
N#Cc1ccc(S(=O)(=O)N2C[C@H](Oc3ccc(C#N)c(F)c3)[C@](O)(CO)C2)cc1 [Example 71, 4-(((3S,4R)-1-((4-cyanophenyl)sulfonyl)-4-hydroxy-4-(hydroxymethyl)pyrrolidin-3-yl)oxy)-2-fluorobenzonitrile]	10 to 100
CC(C)(C)C#Cc1ccc(S(=O)(=O)N2C[C@H](Oc3ccc(C#N)c(F)c3)[C@](O)(CO)C2)nc1 [Example 229, 4-(((3S,4R)-1-((5-(3,3-dimethylbut-1-yn-1-yl)pyridin-2-yl)sulfonyl)-4-hydroxy-4-(hydroxymethyl)pyrrolidin-3-yl)oxy)-2-fluorobenzonitrile]	10 to 100
COc1cc(Cl)ccc1O[C@H]1CN(S(=O)(=O)c2ccc(C(F)(F)F)cc2C#N)C[C@@]1(O)CO [Example 48, 2-(((3R,4S)-4-(4-chloro-2-methoxyphenoxy)-3-hydroxy-3-(hydroxymethyl)pyrrolidin-1-yl)sulfonyl)-5-(trifluoromethyl)benzonitrile]	10 to 100
Cc1cc(C#N)ccc1S(=O)(=O)N1C[C@H](Oc2ccc(C#N)c(F)c2)[C@](O)(CO)C1 [Example 80, 4-(((3S,4R)-1-((4-cyano-2-methylphenyl)sulfonyl)-4-hydroxy-4-(hydroxymethyl)pyrrolidin-3-yl)oxy)-2-fluorobenzonitrile]	0.1 to 10
N#Cc1ccc(O[C@H]2CN(S(=O)(=O)c3ccc(Cl)cc3C#N)C[C@@]2(O)CN)cc1F [Example 240, 4-(((3S,4S)-4-(aminomethyl)-1-((4-chloro-2-cyanophenyl)sulfonyl)-4-hydroxypyrrolidin-3-yl)oxy)-2-fluorobenzonitrile]	0.1 to 10
N#Cc1cc(OCC(F)(F)F)c(O[C@H]2CN(S(=O)(=O)c3ccc(C(F)(F)F)nc3)C[C@@]2(O)CO)cc1F [Example 175, 2-fluoro-4-(((3S,4R)-4-hydroxy-4-(hydroxymethyl)-1-((6-(trifluoromethyl)pyridin-3 yl)sulfonyl)pyrrolidin-3-yl)oxy)-5-(2,2,2-trifluoroethoxy) benzonitrile]	10 to 100
N#Cc1ccc(O[C@H]2CN(S(=O)(=O)c3ccc(Cl)cc3Cl)C[C@]2(O)CO)cc1F [Example 142, 4-(((3S,4S)-1-((2,4-dichlorophenyl)sulfonyl)-4-hydroxy-4-(hydroxymethyl)pyrrolidin-3-yl)oxy)-2-fluorobenzonitrile]	10 to 100
N#Cc1ccc(O[C@H]2CN(S(=O)(=O)c3ccc(OC(F)F)cn3)C[C@@]2(O)CN)cc1F [Example 247, 4-(((3S,4S)-4-(aminomethyl)-1-((5-(difluoromethoxy)pyridin-2-yl)sulfonyl)-4-hydroxypyrrolidin-3-yl)oxy)-2-fluorobenzonitrile, 2,2,2-trifluoroacetate]	10 to 100
N#Cc1ccc(S(=O)(=O)N2C[C@H](Oc3ccc(Cl)cc3)[C@](O)(CO)C2)cn1 [Example 109, 5-(((3R,4S)-4-(4-chlorophenoxy)-3-hydroxy-3-(hydroxymethyl)pyrrolidin-1-yl)sulfonyl)picolinonitrile]	10 to 100
N#Cc1cc(Cl)ccc1S(=O)(=O)N1C[C@H](Oc2ccc(F)c(F)c2)[C@](O)(CO)C1 [Example 8, 5-chloro-2-(((3R,4S)-4-(3,4-difluorophenoxy)-3-hydroxy-3-(hydroxymethyl)pyrrolidin-1-yl)sulfonyl)benzonitrite]	0.1 to 10
N#Cc1ccc(O[C@H]2CN(S(=O)(=O)c3ccc(OCC(F)(F)F)nn3)C[C@@]2(O)CO)cc1F [Example 133, 2-fluoro-4-(((3S,4R)-4-hydroxy-4-(hydroxymethyl)-1-((6-(2,2,2-trifluoroethoxy)pyridazin-3-yl)sulfonyl)pyrrolidin-3-yl)oxy)benzonitrile]	10 to 100
N#Cc1ccc(O[C@H]2CN(S(=O)(=O)c3sc(Cl)nc3Cl)C[C@@]2(O)CO)cc1F [Example 88, 4-(((3S,4R)-1-((2,4-dichlorothiazol-5-yl)sulfonyl)-4-hydroxy-4-(hydroxymethyl)pyrrolidin-3-yl)oxy)-2-fluorobenzonitrile]	10 to 100
N#Cc1ccc(O[C@H]2CN(S(=O)(=O)c3ccc(Cl)cn3)C[C@@]2(O)CO)cc1F [Example 58, 4-(((3S,4R)-1-((5-chloropyridin-2-yl)sulfonyl)-4-hydroxy-4-(hydroxymethyl)pyrrolidin-3-yl)oxy)-2-fluorobenzonitrile]	10 to 100
CCOc1cc(C#N)c(F)cc1O[C@H]1CN(S(=O)(=O)c2ccc(C(F)(F)F)cc2C#N)C[C@@]1(O)CO [Example 159, 4-(((3S,4R)-1-((2-cyano-4-(trifluoromethyl)phenyl)sulfonyl)-4-hydroxy-4-(hydroxymethyl)pyrrolidin-3-yl)oxy)-5-ethoxy-2-fluorobenzonitrile]	0.1 to 10
C[C@H](O)[C@]1(O)CN(S(=O)(=O)c2ccccc2C#N)C[C@@H]1Oc1ccc(C#N)c(F)c1 [Example 200, 4-(((3S,4R)-1-((2-cyanophenyl)sulfonyl)-4-hydroxy-4-((S)-1-hydroxyethyl)pyrrolidin-3-yl)oxy)-2-fluorobenzonitrile]	10 to 100
N#Cc1cc(C(F)(F)F)ccc1S(=O)(=O)N1C[C@H](Oc2ccccc2)[C@](O)(CO)C1 [Example 46, 2-(((3R,4S)-3-hydroxy-3-(hydroxymethyl)-4-phenoxypyrrolidin-1-yl)sulfonyl)-5-(trifluoromethyl)benzonitrile]	10 to 100
N#Cc1ccc(O[C@H]2CN(S(=O)(=O)c3ccc(Br)cc3)C[C@@]2(O)CO)cc1F [Example 102, 4-(((3S,4R)-1-((4-bromophenyl)sulfonyl)-4-hydroxy-4-(hydroxymethyl)pyrrolidin-3-yl)oxy)-2-fluorobenzonitrile]	10 to 100
N#Cc1ccc(O[C@H]2CN(S(=O)(=O)c3ccc(C(F)(F)F)nc3Cl)C[C@@]2(O)CO)cc1F [Example 100, 4-(((3S,4R)-1-((2-chloro-6-(trifluoromethyl)pyridin-3-yl)sulfonyl)-4-hydroxy-4-(hydroxymethyl)pyrrolidin-3-yl)oxy)-2-fluorobenzonitrile]	0.1 to 10
N#Cc1ccc(O[C@H]2CN(S(=O)(=O)c3ccc(Cl)cc3C#N)C[C@@]2(O)CO)cc1F [Example 3, 4-(((3S,4R)-1-((4-chloro-2-cyanophenyl)sulfonyl)-4-hydroxy-4-(hydroxymethyl)pyrrolidin-3-yl)oxy)-2-fluorobenzonitrile]	0.1 to 10

Reference: patent publication US11229623B2 (GlaxoSmithKline Intellectual Property (No.2) Limited, priority 2016, dated 2022)
